Experimental data taken from paper PMC7445967, “The Potential of Atractylodin-Loaded PLGA Nanoparticles as Chemotherapeutic for Cholangiocarcinoma” (Asian Pacific Journal of Cancer Prevention : APJCP, 2020).
Values after ≈ are worked out from the molar mass of the structure shown. Like-named read-outs stand apart in the source and are kept apart here.

What was measured:
[1] = test system: CL-6 cholangiocarcinoma cell line; assay: MTT cytotoxicity assay, CL-6; conditions: for Cell viability: highest concentration (atractylodin 125 µg/mL, ALNPs-1 6,000 µg/mL), range
Procedure: (§1) Human cholangiocarcinoma (CCA) cell lines, CL-6 and HuCC-T1, and normal fibroblast cell line, OUMS-36T-1F, were used for cytotoxicity assay. CL-6 and HuCC-T1 cell lines were cultured in RPMI medium and OUMS-36T-1F cell line was cultured in DMEM medium. Both culture media were prepared as complete medium supplemented with 10% (v/v) FBS and 1% antibiotic-antimycotic solution (100 IU/mL). All cell cultures were maintained at 37°C under 5% CO2 atmosphere and 95% humidity ([…] 150i, Thermo scientific, MA, USA).
(§2) For cytotoxicity assay, the CCA and normal cell lines were exposed to various concentrations of ALNPs-1 (47-6,000 µg/mL, 100 µL each), blank NPs-1 (47-6,000 µg/mL, 100 µL each), atractylodin (1-125 µg/mL), 5-FU (positive control, 1-125 µg/mL), or serum-free medium (negative control) in a 96-well plate. Briefly, 8,000 cells (in 100 µL complete medium) were seeded into each well and pre-incubated at 37°C under 5% CO2 for 24 h. Viability of each cell following exposure to ALNPs-1, blank NPs-1, atractylodin, and 5-FU was determined by MTT assay at 24, 48, and 72 h of exposure (Chittasupho et al., 2017). Absorbance of cell suspension was measured at 550 nm using UV Absorbance Reader (Vario skan flash, Thermo Fisher scientific, MA, USA). Cell viability was calculated using the Equation (4):
(§3) Cell viability %=Absorbance of cell treated with sample/absorbance of negative control cells×100
(§4) IC50 (concentration that inhibits cell growth by 50%) of each compound in each cell line was determined using Graphpad Prism version 7.04 (GraphPad Software, CA, USA). Selectivity index (SI) was determined from the ratio of IC50 of ALNPs-1, atractylodin, or 5-FU in normal cell and CCA cell.

[2] = test system: OUMS-36T-1F normal fibroblast cell line; assay: MTT cytotoxicity assay, OUMS-36T-1F; conditions: for Cell viability: highest concentration (atractylodin 125 µg/mL, ALNPs-1 6,000 µg/mL), range
Procedure: as §1, §2, §3, §4

[3] = test system: HuCC-T1 cholangiocarcinoma cell line; assay: MTT cytotoxicity assay, HuCC-T1; conditions: for Cell viability: highest concentration (atractylodin 125 µg/mL, ALNPs-1 6,000 µg/mL), range
Procedure: as §1, §2, §3, §4

[4] = cited from earlier work
[5] = ratio of IC50 in normal cell (OUMS-36T-1F) and CL-6, 24 hours
[6] = ratio of IC50 in normal cell (OUMS-36T-1F) and CL-6, 48 hours
[7] = ratio of IC50 in normal cell (OUMS-36T-1F) and CL-6, 72 hours
[8] = ratio of IC50 in normal cell (OUMS-36T-1F) and HuCC-T1, 24 hours
[9] = ratio of IC50 in normal cell (OUMS-36T-1F) and HuCC-T1, 48 hours
[10] = ratio of IC50 in normal cell (OUMS-36T-1F) and HuCC-T1, 72 hours

With O=c1[nH]cc(F)c(=O)[nH]1 [5-FU, 5-fluorouracil] the IC50 ([1]; Homo sapiens, 24 h) was 77.4 µg/mL (≈ 595 µM), the IC50 ([1]; Homo sapiens, 48 h) was 38.8 µg/mL (≈ 299 µM) and the IC50 ([1]; Homo sapiens, 72 h) was 3.46 µg/mL (≈ 26.6 µM). The “Selectivity index (SI)” value [1, 5] was 1.71, the “Selectivity index (SI)” value [1, 6] was 1.28 and the “Selectivity index (SI)” value [1, 7] was 8.90. The IC50 ([2]; Homo sapiens, Fibroblast, 24 h) was 133 µg/mL (≈ 1020 µM), the IC50 ([2]; Homo sapiens, Fibroblast, 48 h) was 49.8 µg/mL (≈ 383 µM) and the IC50 ([2]; Homo sapiens, Fibroblast, 72 h) was 30.8 µg/mL (≈ 237 µM). The IC50 ([3]; Homo sapiens, HuCCT-1, 24 h) was 38.9 µg/mL (≈ 299 µM), the IC50 ([3]; Homo sapiens, HuCCT-1, 48 h) was 25.9 µg/mL (≈ 199 µM) and the IC50 ([3]; Homo sapiens, HuCCT-1, 72 h) was 8.2 µg/mL (≈ 63 µM). For the same molecule, the “Selectivity index (SI)” value [3, 8] was 3.41, the “Selectivity index (SI)” value [3, 9] was 1.92 and the “Selectivity index (SI)” value [3, 10] was 3.75.

With C/C=C/C#CC#C/C=C/c1ccco1 [Atractylodin] the IC50 ([1]; CL-6, 24 h exposure, MTT) was 56.36 µg/mL (≈ 309 µM), the Cell viability ([1]; CL-6, 24 hours) was 24.38-33.56% and the IC50 ([1]; CL-6, 48 h exposure, MTT) was 37.66 µg/mL (≈ 207 µM). The Cell viability ([1]; CL-6, 48 hours) was 9.71-13.89%, the IC50 ([1]; CL-6, 72 h exposure, MTT) was 52.02 µg/mL (≈ 285 µM) and the Cell viability ([1]; CL-6, 72 hours) was 9.12-10.27%. For the same molecule, the “Selectivity index (SI)” value [1, 5] was 1.50, the “Selectivity index (SI)” value [1, 6] was 1.54 and the “Selectivity index (SI)” value [1, 7] was 1.33. For the same molecule, the “Concentrations producing cytotoxic effect against normal cells” value ([2]; OUMS-36-1F normal cells) was 62.5 to 125 µg/mL, the IC50 ([2]; OUMS-36T-1F, 24 h exposure, MTT) was 84.33 µg/mL (≈ 463 µM) and the Cell viability ([2]; OUMS-36T-1F, 24 hours) was 39.61-41.50%. The IC50 ([2]; OUMS-36T-1F, 48 h exposure, MTT) was 58.16 µg/mL (≈ 319 µM), the Cell viability ([2]; OUMS-36T-1F, 48 hours) was 14.88-15.37% and the IC50 ([2]; OUMS-36T-1F, 72 h exposure, MTT) was 69.03 µg/mL (≈ 379 µM). The Cell viability ([2]; OUMS-36T-1F, 72 hours) was 6.61-7.92%, the IC50 ([3]; HuCC-T1, 24 h exposure, MTT) was 53.66 µg/mL (≈ 294 µM) and the Cell viability ([3]; HuCC-T1, 24 hours) was 23.72-30.39%. The IC50 ([3]; HuCC-T1, 48 h exposure, MTT) was 59.74 µg/mL (≈ 328 µM), the Cell viability ([3]; HuCC-T1, 48 hours) was 16.18-17.18% and the IC50 ([3]; HuCC-T1, 72 h exposure, MTT) was 76.15 µg/mL (≈ 418 µM). The Cell viability ([3]; HuCC-T1, 72 hours) was 16.43-20.57%, the “Selectivity index (SI)” value [3, 8] was 1.57 and the “Selectivity index (SI)” value [3, 9] was 0.97. The “Selectivity index (SI)” value [3, 10] was 0.91, the Solubility in water ([4]; free atractylodin, ref TGSC Information System, 2019) was 7.541 µg/mL (≈ 41.4 µM) and the “Solubility in water” value ([4]; soluble in organic solvents such as ethyl acetate, DMSO, acetone, ref ChemFaces, 2018) was “insoluble in water”.
